{"source": "patent US7736625B2", "about": "“Light stabilized in vivo stain composition and method of manufacture” (Zila, Inc., priority 2001, dated 2010)", "experiment": "light stability of thiazine dye solution exposed to ambient incandescent light", "format": "physicochemical", "details": "total metal content less than 0.2 wt. %; initially deep-blue; overnight in the laboratory", "experimental": "This example illustrates the light-instability of a TC product with negligible content of metal ions.\nA sample of the TC product is prepared in accordance with Example 1 of my U.S. Pat. No. 6,086,852, incorporated herein by reference, and further purified by preparative high performance liquid chromatography. The total metal content of this sample is less than 0.2 wt. %.\nAn aliquout of this purified TC product sample is deep-blue in color."}
{"smiles": "Cc1cc2nc3ccc(=[N+](C)C)cc-3sc2cc1N.[Cl-]", "note": "[TC product, tolonium chloride]", "values": [{"measurement": "appearance of the solution after standing overnight exposed to ambient incandescent light", "result": "becomes colorless"}]}
